# Tests used:
# mosquito larvae = assay: Dual-action ovitrap test, larval survival (Protocol D); assay type: in vivo; details: for Mosquito larval survival / mortality versus hours of exposure: larvae in water of ovitrap treated with coating (FIGS. 9-11)
# Protocol: The following protocols A, B, C and D list the flowchart methodologies for experiments that were conducted for evaluating the different coatings used. • A. Flowchart of methodology in the evaluation of adulticide coating includes the steps of: • i. Obtain preferred coating basis; • ii. Add adulticide (pyrethroids) and, if desired, an additive (CARBONXIDE™) to formulate different formulations of insecticides; • iii. Add coating on wood panels; • iv. Age wood panels in simulated environmental conditions; • v. Prepare housing for adult mosquitoes • a Place a 4-oz plastic cup upside down on coated wood panels; • vi. Place adult mosquitoes in the housing cup to expose them to insecticidal coating; • vii. Measure mosquito mortality in 1-hour, 2-hour, and 24-hour after exposure; • viii. Collect data and perform statistical analysis to determine effectiveness of adulticide coating. • B. Flowchart of methodology in the evaluation of larvicide coating can include: • i. Obtain preferred coating basis; • ii. Add larvicide (insect growth regulators) and, if desired, an additive (CARBONXIDE™); • iii. Coat filter paper and let air dry for 1-3 days; • iv. Prepare housing for larval mosquitoes; • a. Place coated filter paper in 4-oz glass jars; • b. Fill jars with unchlorinated or distilled water; • v. Place larval mosquitoes on the jars; • vi. Measure mosquito larva mortality in 12-hour intervals until all are dead or emerged as adults; • vii. Collect data and perform statistical analysis to determine effectiveness of adulticide coating. • C. Flowchart of methodology in evaluation of adulticide coating as applied in lethal ovitrap can include: • i. Obtain preferred coating basis; • ii. Add adulticide (pyrethroids) and, if desired an additive (CARBONXIDE™); • iii. Coat filter paper and let air dry for 1-3 days; • iv. Prepare oviposition cup; • a. Place coated filter paper in a 4-oz plastic cup; • b. Fill cup halfway with unchlorinated or distilled water; • v. Prepare housing for gravid (“pregnant”) females; • a. Cut a 1-inch hole on the side of a 3-gallon bucket; • b. Cover hole with ½ in foam; • vi. […]
# [1] = system: gravid females (adult mosquitoes); assay: Dual-action ovitrap test, adult survival (Protocol D); assay type: in vivo, mosquito; details: gravid females exposed to ovitrap treated with coating (FIGS. 9-11)
# Protocol: (§1) The following protocols A, B, C and D list the flowchart methodologies for experiments that were conducted for evaluating the different coatings used. • A. Flowchart of methodology in the evaluation of adulticide coating includes the steps of: • i. Obtain preferred coating basis; • ii. Add adulticide (pyrethroids) and, if desired, an additive (CARBONXIDE™) to formulate different formulations of insecticides; • iii. Add coating on wood panels; • iv. Age wood panels in simulated environmental conditions; • v. Prepare housing for adult mosquitoes • a Place a 4-oz plastic cup upside down on coated wood panels; • vi. Place adult mosquitoes in the housing cup to expose them to insecticidal coating; • vii. Measure mosquito mortality in 1-hour, 2-hour, and 24-hour after exposure; • viii. Collect data and perform statistical analysis to determine effectiveness of adulticide coating. • B. Flowchart of methodology in the evaluation of larvicide coating can include: • i. Obtain preferred coating basis; • ii. Add larvicide (insect growth regulators) and, if desired, an additive (CARBONXIDE™); • iii. Coat filter paper and let air dry for 1-3 days; • iv. Prepare housing for larval mosquitoes; • a. Place coated filter paper in 4-oz glass jars; • b. Fill jars with unchlorinated or distilled water; • v. Place larval mosquitoes on the jars; • vi. […]
# Aedes aegypti = assay: Adult mosquito mortality on aged insecticidal coatings on wood panels (Protocol A); assay type: in vivo; details: 24 h exposure, independent of aging for approximately 2 years (FIG. 7)
# Protocol: as §1
# Aedes albopictus = assay: as above; assay type: in vivo; details: 24 h exposure, independent of aging for approximately 2 years (FIG. 8)
# Protocol: as §1
SMILES,Pupal development / adult emergence from larvae (mosquito larvae; larvae in ovitrap treated with coating (FIG. 11)),Mosquito larval survival / mortality versus hours of exposure (mosquito larvae),Adult survival / mortality versus hours of exposure [1],Percent of Adult Mosquito Mortality (Aedes aegypti) [%],Percent of Adult Mosquito Mortality (Aedes albopictus) [%]
CC(COc1ccc(Oc2ccccc2)cc1)Oc1ccccn1 (stereo not shown) [pyriproxyfen],adults never emerge,killed rapidly when they start molting into the pupal stage,only normal mortality,,
CC1(C)C(C=C(Cl)Cl)C1C(=O)OCc1cccc(Oc2ccccc2)c1 (stereo not shown) [permethrin],,killed rapidly,Adult mortality does not occur until after the females have started laying eggs,100,100

# From US9992989B2, “Dual action lethal containers, systems, methods and compositions for killing adult mosquitos and larvae” (University of Florida Research Foundation, Inc., priority 2012, dated 2018)
